According to US9452177B2, “Vitamin D compounds and methods for reducing ocular hypertension (OHT)” (Wisconsin Alumni Research Foundation, priority 2008, dated 2016):

Columns and labels:
[1] = system: eyes of ocular normotensive cynomolgus monkeys; test: Intraocular pressure (IOP) by Goldmann applanation tonometry after 5 twice-daily unilateral topical treatments; assay type: in vivo, cynomolgus monkeys (Macaca fascicularis); settings: for IOP less than at baseline prior to the 5th treatment: one eye, both treated and control eye; for IOP decrease prior to the fifth treatment on day 3: both eyes
Description: Ocular normotensive adult cynomolgus monkeys (Macaca fascicularis), of either sex, weighing 3-7 kg were anesthetized with i.m. ketamine HCl (3-25 mg/kg, supplemented with 1-10 mg/kg) for IOP and topical drop administration. All monkeys were free of any ocular abnormalities according to slit lamp biomicroscopy at the time measurements were taken. The monkeys were provided by the Primate Center at the University of Wisconsin-Madison. All experiments were done in accordance with the ARVO Statement on the Use of Animals in Ophthalmic and Vision Research.
The intraocular pressure (IOP) was determined with a “minified” Goldmann applanation tonometer [Kaufman, 1980] using HALF AND HALF™ creamer solution (Borden) as the tear film indicator [Croft, 1997] with the monkey lying prone in a head holder and the eyes positioned 4 to 8 cm above the heart. All monkeys were examined by slit-lamp before the first IOP measurement in each protocol. For each eye, two or three IOP measurements were averaged as a baseline.
(§1) Under ketamine anesthesia (KETAJECT™, Phoenix Pharmaceutical, St Joseph, Mo. (3-25 mg/kg i.m., supplemented with 1-10 mg/kg i.m. as needed) baseline IOP was determined, usually between 7:30 and 9 am (2 readings, 5 minutes apart; if IOP baseline measurements were not within 2-3 mm Hg of each other, a 3rd reading was taken 5 min later). Baseline IOP was at least 15 mmHg if possible. A baseline blood sample was taken from the femoral artery or vein, or sometimes the brachial vein (1-2 ml). This was allowed to clot and then spun down (3000 rpm for 10 min, Damon/IEC NH-SII centrifuge) and the serum removed and frozen at −20 C for no more than 1 week. Baseline systolic, diastolic and mean arterial pressure as well as heart rate were recorded with the Dinamap monitor from a cuff placed around the arm or the leg.
After baseline measurements, the monkey was place supine with the eye pointing up and the eyelid held open. A 5 μl drop of test material or vehicle was delivered to opposite eyes. The eyelid was held open for at least 30 sec and the eye was maintained in the upward position for an additional 30 sec. The monkey was then returned to its cage and allowed to wake up. In the afternoon, at least 6 hours after the morning treatment, another treatment was administered. On the second day, dosing was repeated in the am and pm.
On the 3th day, prior to the 5th treatment, baseline IOP, biomicroscopy and MAP were determined. Preliminary studies indicated an effect was observed after these treatments but not after a single treatment. Following the 5th dose, IOP was measured at 1, 2, 3, 4, 5, 6, 7, 8, 12 (if possible), 24, and sometimes 48 hr. Biomicroscopy was done at 1, 3, 6, 24 and sometimes 48 hr. MAP on day 3 (some protocols) was determined at 1, 2, 3, 4, 5, 6, 7, 8, 24 and sometimes 48 hr if possible. Blood samples after the 5th treatment were collected at 6, 24, and sometimes 48 hr. For some protocols, IOP was also measured prior to each treatment; MAP was measured prior to the morning treatment; blood was collected prior to the afternoon treatment. Subsequent screening protocols will not include the MAP and blood collections and will only measure IOP at baseline and prior to and for 1-6 hr after the 5th treatment.
Adult cynomolgus monkeys (Macaca fascicularis) of either sex were anesthetized with intramuscular ketamine HCl (10 mg/kg initial, 5 mg/kg supplemental). Baseline pretreatment IOP was determined by Goldmann applanation tonometry [Kaufman, 1980] with […] used as a tear film indicator [Croft, 1997]. Two baseline IOP measurements were taken 5 minutes apart. […]

[2] = Serum Ca2+ level after ocular topical applications; assay type: in vivo, cynomolgus monkeys (Macaca fascicularis); settings: 5 μg, 3 days, total 5 unilateral topical applications
Description: as §1
On the 3th day, prior to the 5th treatment, baseline IOP, biomicroscopy and MAP were determined. […] Following the 5th dose, IOP was measured at 1, 2, 3, 4, 5, 6, 7, 8, 12 (if possible), 24, and sometimes 48 hr. […] MAP on day 3 (some protocols) was determined at 1, 2, 3, 4, 5, 6, 7, 8, 24 and sometimes 48 hr if possible. […] For some protocols, IOP was also measured prior to each treatment; MAP was measured prior to the morning treatment; blood was collected prior to the afternoon treatment. […]

[3] = Example 3, 5 μg unilateral topical

## C=C1/C(=C\C=C2/CCC[C@]3(C)[C@@H]([C@H](C)CCCC(C)(C)O)CC[C@@H]23)C[C@@H](O)C[C@@H]1O [1,25-(OH)2D3, 1α,25-dihydroxyvitamin D3]
[1]; Example 1, 5 μg (2MD 6 μg) in 5 μl propylene glycol one eye, vehicle opposite eye
  IOP in treated eye compared with control eye: consistently, but not significantly less than in the control eye
[1]; Example 1, 5 μg in 5 μl propylene glycol twice daily, n=8
  IOP less than at baseline prior to the 5th treatment: 3-4 mmHg
[1]; Example 1, 5 μg twice daily, n=8, p<0.05
  IOP less than at baseline prior to the 5th treatment: ~17%
[1]; Example 1, 5 μg, after 5th treatment
  time of gradual recovery of IOP toward baseline: 24 to 48 h
[1]; Example 1, 5 μg, hr 1-4 after 5th dose
  additional IOP decrease after the 5th treatment: 1-2 mmHg
[1]; Example 1, 5 μg, hr 1-4 after 5th dose, p<0.02
  total IOP reduction after the 5th treatment: 20-30%
[1]; Example 1, 5 uniocular topical treatments
  strongest response, IOP decrease: up to 40%
[1]; Example 1, 5 uniocular topical treatments at the same dose
  rank order of ocular hypotensive effect: 1,25(OH)2D3>2MD>AGR
[1]; Example 3, 0.1 μg unilateral topical, either eye
  effect on IOP: did not have any significant effect on IOP in either eyes
[1]; Example 3, 1 μg
  IOP reduction in control versus treated eyes: stronger IOP reduction in the fellow control eyes than in the treated eyes
[1]; Example 3, 1 μg unilateral topical
  IOP reduction (bilateral): 20%
[1]; Example 3, 5 μg
  IOP difference between treated and control eyes: no significant differences between the two eyes except for the time period of 12 h or longer
[1]; Example 3, 5 μg in opposite eye
  IOP reduction, control eyes: 27%
[1]; [3]
  IOP reduction, treated eye: 30%
  IOP decrease prior to the fifth treatment on day 3: ~3 mmHg
[1]; Example 3, 5 μg unilateral topical, p<0.05
  IOP decrease prior to the fifth treatment on day 3: approximately 20%
[1]; Example 3, 5 μg, after fifth treatment
  time of return of IOP to near pretreatment baseline: 48 h
[1]; topical application, nonhuman primates
  duration of IOP-lowering effect: more than 12 hours
[2]
  blood serum calcium levels: did not change
